According to publication PMC9518288, “The mechanism and pharmacodynamics of 2-((1H-indol-3-yl)thio/sulfinyl)-N-pheny acetamide derivative as a novel inhibitor against human respiratory syncytial virus” (Journal of Enzyme Inhibition and Medicinal Chemistry, 2022):

Experiments:
RSV-Luc = test: In vivo mouse imaging, oral route (intragastric); set-up: species or system BALB/c mice; details: intragastric 30 and 90 mg/kg, gavage twice a day
Protocol: Female BALB/c mice of 6-8 weeks were purchased from Charles River Laboratories, Beijing, China and randomly divided into different groups with six mice in each group. All animal experiments were performed in compliance with protocols approved by the Institutional Animal Care and Use Committees of Tsinghua University (No. 17-DZJ1). The compounds (DMSO and ribavirin of 90 mg/kg was used as negative and positive control, respectively) with three different dose groups of 10, 30 and 90 mg/kg were administered to mice by intraperitoneal (i.p.) injection or oral route (anaesthesia with 2% halothane) at zero day and 1 h prior to the mice infected with 50 μL RSV-Luc (1 × 10^6 PFU), […] For the in vivo mouse imaging, 50 μL PBS containing D-Luciferin Potassium Salt (75 mg/kg) was administered to BALB/c mice via nasal drip at days 1, 2, 3, 4 and 5 since RSV-Luc infection, and 5 min later, the whole-body images of BALB/c mice were acquired using an IVIS Lumina II in vivo imaging system (PE, Waltham, MA, USA). And the signal intensity was quantified as the total flux (photons/seconds) using Living Image software (PE).
In order to further make clear whether the anti-RSV activity of 4–49 C and 1-HB-63 is dependent on the administration route or not, these two compounds were given intragastrically (Figure 5(A)). […]

[1] = Pharmacokinetic study in rat; assay type: in vivo, Sprague − Dawley (SD) rats; details: SD rat
Protocol: Six male Sprague − Dawley (SD) rats, randomly divided into two groups of 3 each, were treated with 4–49 C predissolved in 5% DMSO, 5% Solutol and 90% Saline by intravenous injection (iv, 5 mg/kg) and in 5% DMSO and 95% (0.5%MC) by intragastric administration (ig, 10 mg/kg), respectively. Blood samples (100 μL) were collected into K2-EDTA tubes by retro‐orbital bleeding under anaesthesia using isoflurane at 0.033, 0.083, 0.25, 0.5, 1, 2, 4, 7 and 24 h after dosing. And then plasma samples were obtained by centrifuging at 5000 rpm for 10 min at 4 °C and stored at −80 °C until analysis using HPLC–MS/MS.
To investigate the pharmacokinetic parameters in vivo, 4–49 C was selected for the pharmacokinetic experiments in SD rat model. The SD rats were divided into two groups (n = 3) and treated by iv at 5 mg/kg dose and by ig at 10 mg/kg dose, respectively. Plasma samples were collected up to 24 h postdosing and the concentration of 4–49 C was measured by using HPLC-MS/MS.

[2] = test system: RSV adsorption to HEp-2 cells; test: RSV adsorption analyses (RT-qPCR); assay type: cell-based, Human respiratory syncytial virus; details: RSV 5 MOI, 1 h at 4 °C
Protocol: (§1) Figure 2. Investigation on the underlying mechanism 4–49 C and 1-HB-63 inhibiting wtRSV replication. (A) Time-of-addition analyses of 4-49C and 1-HB-63 replication. The HEp-2 cells were infected with wtRSV at a multiplication of infection (MOI) of 5 for 2 h (37 °C, 5% CO2). The cells were washed with PBS and the media containing drug (4-49C, 1-HB-63, RSV-604, GS-5806 and Ribavirin at 1 mM, 200 μM, 10 μM, 1 mM and 100 μM, respectively.) were added at −1, 0, 2, 4, 6, 8, 10, 12 and 14 h separately and incubated till 24 h post infection. Then, the cells were harvested and lysed for RNA extraction and RT-qPCR assay. The results were a representative of three independent experiments, and shown as means ± standard and expressed as % negative control, although in many cases the bars for the standard deviation were obscured by the symbols given the small margin of values. (B) RSV adsorption analyses. After HEp-2 cells seeded into 24 well plates for 24 h, the cold media containing RSV (5 MOI) and compounds of 4–49C, 1-HB-63 and P13 at 1 mM, 200 μM and 100 μM, respectively, was added and incubated for 1 h at 4 °C. Then, the total RNA was isolated and RT-qPCR was performed. (C) RSV minigenome assay. After 24 h, we cotransfected RSV minigenome plasmid of pBR322B-RSV-Gluc with four auxiliary plasmids into BHK/T7 cells and detected the expression of Gluc in the supernatant. […]

wtRSV in HEp-2 cells = test: Time-of-addition assay (RT-qPCR); assay type: cell-based, Human respiratory syncytial virus; details: wtRSV MOI 5, HEp-2, added at −1 to 14 h, RT-qPCR at 24 h post infection
Protocol: The time-of-addition assay was performed as follows according to our previous work and literature[25]^,[27]. HEp-2 cells were plated in 96 well plates at 1.5 × 10^4 cells per well in 100 µL culture medium and incubated for 24 h (37 °C, 5% CO2). Then, HEp-2 cells were infected with wtRSV at a multiplication of infection (MOI) of 5 for 2 h (37 °C, 5% CO2). The cells were washed with PBS and the media containing drugs and compounds of 4–49 C, 1-HB-63, RSV-604, GS-5806 and Ribavirin at 1 mM, 200 μM, 10 μM, 1 mM and 100 μM, respectively, were added at −1, 0, 2, 4, 6, 8, 10, 12 and 14 h post infection. After the treated cells were further cultured and collected at 24 h post infection, the total RNA was isolated from the HEp-2 cells using TRIzol reagent (Thermo Fisher Scientific, Waltham, MA, USA) and reverse transcribed with GoScript Reverse Transcriptase kit (Promega, Madison, WI, USA). Then, RT-qPCR was performed as described previously.
as §1, with “After HEp-2 cells seeded into 24 well plates for 24 h, the cold media containing RSV (5 MOI) and compounds of 4–49C, 1-HB-63 and P13 at 1 mM, 200 μM and 100 μM, respectively, was added and incubated for 1 h at 4 °C. Then, the total RNA was isolated and RT-qPCR was performed. (C) RSV minigenome assay.” left out

[3] = male, Sprague-Dawley, iv, 5 mg/kg, plasma, n = 3, Mean ± SD

| SMILES | fluorescence signals (RSV-Luc replication) compared with DMSO negative control group (RSV-Luc) | concentration in plasma samples after ig administration ([1]; ig, 10 mg/kg, up to 24 h, HPLC-MS/MS (data not shown)) | MRTIV ([1]; iv, 5 mg/kg, plasma, n = 3, Mean ± SD) | AUC(0-inf) [1, 3] | AUC(0-t) [1, 3] | Cmax [1, 3] | half-life [1, 3] | k el [1, 3] | inhibition of RSV replication by preventing virus adsorption ([2]; 4-49C at 1 mM) | time points of addition at which virus replication is inhibited (wtRSV in HEp-2 cells; compound at 1 mM) | inhibition of RSV replication by preventing virus adsorption ([2]; 1-HB-63 at 200 μM) | time points of addition at which virus replication is inhibited (wtRSV in HEp-2 cells; compound at 200 μM) |
| --- | --- | --- | --- | --- | --- | --- | --- | --- | --- | --- | --- | --- |
| CCOc1ccccc1NC(=O)CSc1c[nH]c2ccc(OC)cc12 [4–49 C] | did not exhibit significant differences | no 4–49 C detected in plasma samples | 7.86 ± 0 min | 70 ± 17 ng·h/mL | 69.3 ± 17 ng·h/mL | 454 ± 111 ng/mL | 10 ± 18 min | 0.00119 s⁻¹ | neither of 4-49 C and 1-HB-63 inhibited RSV replication by preventing virus adsorption | significantly inhibited virus replication when added at the time points of −1, 0 and 2 h | – | – |
| O=C(C[S+]([O-])c1c[nH]c2ccccc12)Nc1ccccc1Br (stereo not shown) [1-HB-63] | did not exhibit significant differences | – | – | – | – | – | – | – | – | – | neither of 4-49 C and 1-HB-63 inhibited RSV replication by preventing virus adsorption | significantly inhibited virus replication when added at the time points of −1, 0, 2 and 4 h |
